Seven compounds from ChEMBL document CHEMBL4808162, “Constraining the Side Chain of C-Terminal Amino Acids in Apelin-13 Greatly Increases Affinity, Modulates Signaling, and Improves the Pharmacokinetic Profile” (J Med Chem, 2021) can be followed below.

For assay [1], the target named is T1, Apelin receptor (Homo sapiens, UniProt P35414).
T1 sequence (P35414 whole entry): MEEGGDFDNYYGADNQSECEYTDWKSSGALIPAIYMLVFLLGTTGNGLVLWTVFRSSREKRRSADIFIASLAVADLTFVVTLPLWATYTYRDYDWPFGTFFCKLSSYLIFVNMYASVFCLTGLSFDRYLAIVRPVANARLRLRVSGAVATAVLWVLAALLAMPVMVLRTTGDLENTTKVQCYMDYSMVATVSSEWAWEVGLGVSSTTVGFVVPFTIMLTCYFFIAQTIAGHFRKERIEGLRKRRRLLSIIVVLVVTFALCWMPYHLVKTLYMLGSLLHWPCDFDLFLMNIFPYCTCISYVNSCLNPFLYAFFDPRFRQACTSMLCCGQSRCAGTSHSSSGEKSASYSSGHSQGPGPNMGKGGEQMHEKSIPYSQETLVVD
In words: Displacement of [125I] [NIe75,Tyr77]Pyr-apelin-13 from YFP-tagged human APJ receptor expressed in HEK293 cells incubated for 1 hr by gamma counting analysis. Type of assay: cell-based. (In a radioligand displacement assay an active substance lowers the binding of a labelled ligand.)

The target in assay [2] is T1, Apelin receptor. Put plainly: Agonist activity at human APJ receptor expressed in HEK293T cells co-expressing Galphai1 RlucII assessed as dissociation of Galphai1 from Gbetta/gamma subunit measured using coelenterazine luciferase substrate incubated for 5 mins by BRET assay. Type of assay: functional, cell-based, HEK293. In general terms: Bioluminescence resonance energy transfer reports proximity on the nanometre scale.

Assay [3] addresses T1, Apelin receptor. Put plainly: Agonist activity at human APJ receptor expressed in HEK293T cells co-expressing PDZ-Rho-Gef-RLucll and rGFP-CAAX assessed as induction of recruitment of Galpha12 to cell membrane using coelenterazine luciferase substrate incubated for 5 mins by BRET assay. Format: functional, cell-based, HEK293.
Assay [4] concerns the target T1, Apelin receptor. Put plainly: Agonist activity at human APJ receptor expressed in HEK293 cells co-expressing Rlucll-beta-arrestin2 assessed as induction of beta-arrestin2 recruitment to receptor incubated for 30 mins by BRET assay. Format: functional, cell-based.

The structures appear in SMILES notation.

With `CCCC[C@H](NC(=O)[C@@H]1CCCN1C(=O)CNC(=O)[C@H](CCCCN)NC(=O)[C@H](Cc1cnc[nH]1)NC(=O)[C@H](CO)NC(=O)[C@H](CC(C)C)NC(=O)[C@H](CCCNC(=N)N)NC(=O)[C@@H]1CCCN1C(=O)[C@H](CCCNC(=N)N)NC(=O)[C@@H]1CCC(=O)N1)C(=O)N1CCC[C@H]1C(=O)N1C[C@@H](OCc2ccccc2)C[C@@H]1C(=O)O`, on Apelin receptor [1], the Ki (usually the dissociation constant of the complex between target and ligand, obtained from inhibition or displacement) was 0.0061 µM. Moreover, the concentration giving a half-maximal response (EC50) (usually the concentration at which the effect is half-maximal) at Apelin receptor [2] worked out at 0.0064 µM; at Apelin receptor [3], 0.063 µM; at Apelin receptor [4], 0.192 µM.

On to `CCCC[C@H](NC(=O)[C@@H]1CCCN1C(=O)CNC(=O)[C@H](CCCCN)NC(=O)[C@H](Cc1cnc[nH]1)NC(=O)[C@H](CO)NC(=O)[C@H](CC(C)C)NC(=O)[C@H](CCCNC(=N)N)NC(=O)[C@@H]1CCCN1C(=O)[C@H](CCCNC(=N)N)NC(=O)[C@@H]1CCC(=O)N1)C(=O)N1CCC[C@H]1C(=O)N[C@H](Cc1ccc(-c2ccccc2)cc1)C(=O)O`, for which affinity on Apelin receptor [1] (hek293) was put at a Ki of 0.00035 µM. In addition, the EC50 was 0.0021 µM at Apelin receptor [2] (hek293), 0.021 µM on Apelin receptor [3] (hek293) and 0.064 µM at Apelin receptor [4] (hek293).

`CCCC[C@H](NC(=O)[C@@H]1CCCN1C(=O)CNC(=O)[C@H](CCCCN)NC(=O)[C@H](Cc1cnc[nH]1)NC(=O)[C@H](CO)NC(=O)[C@H](CC(C)C)NC(=O)[C@H](CCCNC(=N)N)NC(=O)[C@@H]1CCCN1C(=O)[C@H](CCCNC(=N)N)NC(=O)[C@@H]1CCC(=O)N1)C(=O)N1CCC[C@H]1C(=O)N[C@H](Cc1cc(C2CCCC2)c(O)c(C2CCCC2)c1)C(=O)O` displayed a Ki at Apelin receptor [1] of 0.0016 µM. Moreover, the EC50 on Apelin receptor [2] amounted to 0.016 µM; on Apelin receptor [3], 0.111 µM; on Apelin receptor [4] it was 0.361 µM.

Take `CCCC[C@H](NC(=O)[C@@H]1CCCN1C(=O)CNC(=O)[C@H](CCCCN)NC(=O)[C@H](Cc1cnc[nH]1)NC(=O)[C@H](CO)NC(=O)[C@H](CC(C)C)NC(=O)[C@H](CCCNC(=N)N)NC(=O)[C@@H]1CCCN1C(=O)[C@H](CCCNC(=N)N)NC(=O)[C@@H]1CCC(=O)N1)C(=O)N1CC[C@H](c2ccccc2)[C@@H]1C(=O)N[C@@H](Cc1ccccc1)C(=O)O`: at Apelin receptor [1], the affinity, expressed as Ki, was 0.0042 µM. The concentration for a half-maximal effect (EC50) on Apelin receptor [2] was determined as 0.017 µM; on Apelin receptor [3], 0.048 µM; on Apelin receptor [4], 0.454 µM.

In turn, `CCCC[C@H](NC(=O)[C@@H]1CCCN1C(=O)CNC(=O)[C@H](CCCCN)NC(=O)[C@H](Cc1cnc[nH]1)NC(=O)[C@H](CO)NC(=O)[C@H](CC(C)C)NC(=O)[C@H](CCCNC(=N)N)NC(=O)[C@@H]1CCCN1C(=O)[C@H](CCCNC(=N)N)NC(=O)[C@@H]1CCC(=O)N1)C(=O)N1CCC[C@H]1C(=O)N[C@H]1Cc2c([nH]c3ccccc23)CN(CC(=O)O)C1=O` showed a Ki at Apelin receptor [1] of 0.0043 µM. The EC50 on Apelin receptor [2] worked out at 0.0068 µM; at Apelin receptor [3], 0.481 µM; at Apelin receptor [4], 0.311 µM.

Consider `CCCC[C@H](NC(=O)[C@@H]1CCCN1C(=O)CNC(=O)[C@H](CCCCN)NC(=O)[C@H](Cc1cnc[nH]1)NC(=O)[C@H](CO)NC(=O)[C@H](CC(C)C)NC(=O)[C@H](CCCNC(=N)N)NC(=O)[C@@H]1CCCN1C(=O)[C@H](CCCNC(=N)N)NC(=O)[C@@H]1CCC(=O)N1)C(=O)N1CCC[C@H]1C(=O)N[C@H](Cc1ccc(OCc2ccccc2)c(C2CCCC2)c1)C(=O)O`, for which, at Apelin receptor [1], affinity was put at a Ki of 0.00041 µM. The results for the 50% effective concentration (EC50) at Apelin receptor [2], at Apelin receptor [3] and on Apelin receptor [4] were 0.0057 µM, 0.053 µM and 0.069 µM, respectively.

For `CCCC[C@H](NC(=O)[C@@H]1CCCN1C(=O)CNC(=O)[C@H](CCCCN)NC(=O)[C@H](Cc1cnc[nH]1)NC(=O)[C@H](CO)NC(=O)[C@H](CC(C)C)NC(=O)[C@H](CCCNC(=N)N)NC(=O)[C@@H]1CCCN1C(=O)[C@H](CCCNC(=N)N)NC(=O)[C@@H]1CCC(=O)N1)C(=O)N1CCC[C@H]1C(=O)N[C@H](C(=O)O)C(C)c1ccccc1` (stereo partly drawn), the affinity on Apelin receptor [1], expressed as Ki, was 0.00037 µM. In addition, the concentration giving a half-maximal response (EC50) was found to be 0.001 µM at Apelin receptor [2], 0.108 µM on Apelin receptor [3] and 0.04 µM on Apelin receptor [4].
